Experimental data: ChEMBL document CHEMBL1759869, “Discovery of spirocyclic sulfonamides as potent Akt inhibitors with exquisite selectivity against PKA” (Bioorg Med Chem Lett, 2011)

What was measured:
[1] = target: T1, RAC-alpha serine/threonine-protein kinase (Homo sapiens, UniProt P31749); assay: Inhibition of AKT1-mediated PRAS40 phosphorylation in human LNCaP cells; assay type: cell-based
[2] = Inhibition of PKA
[3] = Selectivity ratio of IC50 for PKA to IC50 for Akt1
[4] = target: T1, RAC-alpha serine/threonine-protein kinase; assay: Inhibition of Akt1

T1 sequence (P31749 whole entry): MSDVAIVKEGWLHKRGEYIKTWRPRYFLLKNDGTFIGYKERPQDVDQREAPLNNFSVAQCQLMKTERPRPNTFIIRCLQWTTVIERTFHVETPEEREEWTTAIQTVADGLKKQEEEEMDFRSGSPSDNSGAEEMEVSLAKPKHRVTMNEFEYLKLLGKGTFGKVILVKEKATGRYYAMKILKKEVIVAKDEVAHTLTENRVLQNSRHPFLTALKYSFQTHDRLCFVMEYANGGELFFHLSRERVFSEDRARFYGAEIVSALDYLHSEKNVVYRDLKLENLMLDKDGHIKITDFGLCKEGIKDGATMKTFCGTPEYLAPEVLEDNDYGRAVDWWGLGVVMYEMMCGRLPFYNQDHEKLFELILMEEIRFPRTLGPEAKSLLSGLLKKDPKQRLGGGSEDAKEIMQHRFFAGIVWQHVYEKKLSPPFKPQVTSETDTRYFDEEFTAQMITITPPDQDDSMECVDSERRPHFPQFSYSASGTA

IC50 [1] [nM]	IC50 [2] [nM]	Ratio IC50 [3]	IC50 [4] [nM]	SMILES
2400	4700			CCOCCN(C[C@@H](O)CN1CCCC2(CCN(c3ncnc4ccccc34)C2)C1)S(=O)(=O)c1c(C)cccc1C (some centres undefined)
470	2200	180	12	CCOCCN(C[C@@H](O)CN1CCCC2(CCN(c3ncnc(N)c3C3CC3)C2)C1)S(=O)(=O)c1c(C)cccc1C (mixture of isomers)
490	1900	630	3	Cc1noc(C)c1S(=O)(=O)NC[C@@H](O)CN1CCC[C@@]2(CCN(c3ncnc(N)c3C3CC3)C2)C1
310			21	CCOCCN(C[C@@H](O)CN1CCCC2(CCN(c3ncnc4n[nH]c(C)c34)C2)C1)S(=O)(=O)c1c(C)cccc1C (some centres undefined)
	560	27		CCOCCN(C[C@@H](O)CN1CCCC2(CCN(c3ncnc4[nH]nc(C)c34)C2)C1)S(=O)(=O)c1c(C)cccc1C (some centres undefined)
1200	5000	560	9	Cc1ccccc1S(=O)(=O)NC[C@@H](O)CN1CCC[C@@]2(CCN(c3ncnc(N)c3C3CC3)C2)C1
740	3400	280	12	CCOCCN(C[C@@H](O)CN1CCCC2(CCN(c3ncncc3C3CC3)C2)C1)S(=O)(=O)c1c(C)cccc1C (some centres undefined)
2000	9400	550	17	Nc1ncnc(N2CC[C@@]3(CCCN(C[C@H](O)CNS(=O)(=O)c4ccccc4Br)C3)C2)c1C1CC1
18000	> 10000	> 63	160	Cc1ccc(S(=O)(=O)NC[C@@H](O)CN2CCC[C@@]3(CCN(c4ncnc(N)c4C4CC4)C3)C2)c(C)c1
900	3400	850	4	Cc1cccc(C)c1S(=O)(=O)NC[C@@H](O)CN1CCC[C@@]2(CCN(c3ncnc(N)c3C3CC3)C2)C1
2400	4700	250	19	Cc1cccc(C)c1S(=O)(=O)N1CCC[C@@H]1[C@@H](O)CN1CCC[C@@]2(CCN(c3ncnc(N)c3C3CC3)C2)C1
2200	7800	970	8	Cc1cc(F)ccc1S(=O)(=O)NC[C@@H](O)CN1CCC[C@@]2(CCN(c3ncnc(N)c3C3CC3)C2)C1
1900	8300	920	9	Nc1ncnc(N2CC[C@@]3(CCCN(C[C@H](O)CNS(=O)(=O)c4ccccc4Cl)C3)C2)c1C1CC1
14000	> 10000	> 120	81	Nc1ncnc(N2CC[C@@]3(CCCN(C[C@H](O)CNS(=O)(=O)c4ccccc4F)C3)C2)c1C1CC1
	> 10000	> 9	1100	Cc1ccncc1S(=O)(=O)NC[C@@H](O)CN1CCC[C@@]2(CCN(c3ncnc(N)c3C3CC3)C2)C1
1200	210	5	41	CCOCCN(C[C@@H](O)CN1CCCC2(CCN(c3ncnc4[nH]cc(C)c34)CC2)C1)S(=O)(=O)c1c(C)cccc1C
690	3900	430	9	Cc1cccc(C)c1S(=O)(=O)N1CCC[C@H]1[C@@H](O)CN1CCC[C@@]2(CCN(c3ncnc(N)c3C3CC3)C2)C1
13000	> 10000	> 40	250	Cc1cccc(C)c1S(=O)(=O)N1CCC[C@H]1[C@H](O)CN1CCC[C@@]2(CCN(c3ncnc(N)c3C3CC3)C2)C1
180	67	28	2	CCOCCN(C[C@@H](O)CN1CCCC2(CCN(c3ncnc4[nH]cc(C)c34)C2)C1)S(=O)(=O)c1c(C)cccc1C (some centres undefined)
